The record followed here is article PMC13252604, “First Generation Proteolysis Targeting Chimeras (PROTACs) for the Treatment of Progeria” (Advanced Science, 2026).

Usually IC50 stands for the concentration that inhibits the measured activity by half.

The test concerns the target T1, progerin (Mus musculus, UniProt P48678, DEL608-657).
T1 construct: endogenous in cells; host or cells: immortalized (SV40-LT) fibroblasts from Lmna G609G/G609G mice
T1 sequence (P48678 with tags, fused parts or gaps DEL608-657 limits assumed): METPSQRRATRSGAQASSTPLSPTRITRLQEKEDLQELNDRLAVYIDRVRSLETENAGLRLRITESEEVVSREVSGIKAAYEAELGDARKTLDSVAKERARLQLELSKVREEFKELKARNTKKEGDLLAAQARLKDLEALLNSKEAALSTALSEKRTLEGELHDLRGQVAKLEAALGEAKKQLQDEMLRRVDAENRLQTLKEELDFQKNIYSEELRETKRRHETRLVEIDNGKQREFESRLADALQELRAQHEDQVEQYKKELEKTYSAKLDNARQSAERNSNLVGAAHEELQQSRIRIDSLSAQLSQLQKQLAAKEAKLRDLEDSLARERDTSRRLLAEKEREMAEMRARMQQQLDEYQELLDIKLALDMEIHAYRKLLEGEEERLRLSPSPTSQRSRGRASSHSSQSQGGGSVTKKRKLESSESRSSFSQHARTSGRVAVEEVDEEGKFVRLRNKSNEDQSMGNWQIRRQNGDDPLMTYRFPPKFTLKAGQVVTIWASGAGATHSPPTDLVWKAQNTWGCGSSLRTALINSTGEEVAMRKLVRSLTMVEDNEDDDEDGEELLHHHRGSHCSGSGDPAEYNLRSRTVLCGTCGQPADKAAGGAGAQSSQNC
As to the kind of experiment: Cellular thermal shift assay. It counts as binding. On the procedure:
Vehicle .LM123L T-!=>(%C" V,!=> […]
50- !!!!!C#' -4TT8VLamin C -4T:T; (%$$-4-:?5T '()*+
!!!!!E#)*+,- ,V4:-β-Actin ,?4?V ,848; D(%
37- !!!!!*+,- 84;66L<-,V V4-;VL<-,? ?4T-?L<-,8 ,-)*+ […]
Supporting Figure S2. Ternary complex formation, progerin engagement and global selectivity of compound 2. […]
(C) Thermal denaturation curves of progerin in the presence of vehicle (black) or compound 2 at 10 µM (red, DTm=0.7±0.1 °C) or 25 µM (blue, […]
of compound 2 (IC50=7±1 µM). Curves are generated and fitted using sigmoidal dose-response non-linear regression curve fit in GraphPad Prism. Symbols and associated error bars (when not enclosed by the symbol) represent average±SD from two independent experiments carried out in duplicate. […]
(also on this page, place not known: >4000; Cpd2Cpd2 #)"$"C"#"*")*$*C ,V4:- 89:/1239 .0,;902<=:939:>=R?T !"#$#" (%$$ (%C" #)"$"C"#"*")*$*C -45665 -4TT8V ,V4:- 84;66L<-,V T-!=> ,?4?V V4-;VL<-,? -4-:?5T ,848; ?4T-?L<-,8 89:/1239 .0,;902<=:939:>=R?T FFFFFSB#T89: FFFFFSB#T89: FFFFFa+#-++GFB2FC-++CB$ FFFFFbFGF4D-+C FFFFF!4$FB2F!F4D-+G FFFFFiFB2FMF3DE4+G FFFFFiFkF3DE4+GFDLDEdl+C I9em:m rrr 9 :eosmX :e:snst o o Ise::::: I9e::::: :etpoooomX :esnnsmqmX :enst9mmqo :estm9XpoX Lamin β-Actin Progerin Relative progerin levelsin thesoluble fraction Relative levelsof denaturedprogerin [Cpd2, Relative progerin signal intensityvs IgG Cpd2 [Cpd2]=10 [Cpd2]=25 AbundanceRatio Veh Cpd2 -Log10 (p value)) […]
buffer containing 2.5% β-mercaptoethanol, and heated at 95 °C for 5 min prior to magnetic separation and loading of supernatants onto SDS -PAGE gels. Input lysates (~30 µg) were prepared in parallel as Western blot controls.
14. Cellular thermal shift assay.
Progeroid mouse fibroblasts (LmnaG609G/G609G) were seeded (2x10^6 cells) in 100 mm dishes 24 h before the experiment. Next day, cells were first washed with PBS and then incubated with the proteasome inhibitor (S)-MG132 (20 µM) for 2 h at 37 °C and 5%
CO2. Then, the cells were incubated with compound 2 at the corresponding concentration or with vehicle for 60 min at 37 °C and 5% CO2. Cells were then washed with PBS, detached by treatment with trypsin, and collected by centrifugation at 250g and 25 °C for 5 min, washed with PBS and resuspended in PBS in 0.2 mL microtubes. Then, homogenates or cells were transferred to PCR tubes and heat-shocked for 3 min at the appropriate temperature (37 to 61 °C) followed by rapid cooling to 25 °C using a SensoQuest LabCycler Thermocycler (Progen Scientific Ltd). Igepal CA-630 was then added to the samples (final concentration of 1 % v/v), and the samples were thoroughly mixed and denatured by three cycles of freezing/thawing (immersion in liquid nitrogen followed by fast thawing). […]

With `CC1(C)Oc2cc3oc(=O)ccc3cc2C[C@@H]1OC(=O)CCCCCNc1cccc2c1C(=O)N(C1CCC(=O)NC1=O)C2=O` (stereo partly shown) [compound 2], for the setting “CETSA, isothermal at 53 °C, Lmna^G609G/G609G fibroblasts, read-out: binding affinity by isothermal dose‐response fingerprint (IC50)”, the IC50 is 7 ± 1 µM. The “direct binding to progerin by cellular thermal shift assays” value (Lmna^G609G/G609G fibroblasts) was “direct binding between compound 2 and progerin”. For the same molecule, the ΔTm at 10 µM (compound at 10 µM, read-out: DTm of progerin (thermal denaturation curve)) was found to be 0.7 ± 0.1 °C. For the same molecule, the ΔTm at 25 µM (compound at 25 µM, read-out: DTm of progerin (thermal denaturation curve)) was 2 ± 0.3 °C.
